ChEMBL document CHEMBL3871284, “Structure-activity relationship-based screening of antibiotics against Gram-negative Acinetobacter baumannii” (Bioorg Med Chem, 2017)
≈ marks a conversion by molar mass, not a printed value. Calls of active or inactive are those of the source. The calls are words filed in the database; no cut-off is given here.

Key:
[1] = Antiinflammatory activity in mouse RAW264.7 cells assessed as inhibition of LPS-stimulated iNOS mRNA expression at 10 uM after 3 hrs in presence of LPS by RT-PCR analysis; assay type: functional; conditions: RAW264.7, 3 h
Staphylococcus aureus [2] = test: Antimicrobial activity against Methicillin-resistant Staphylococcus aureus isolate 3114 after 16 hrs by broth microdilution assay; assay type: functional; conditions: isolate 3114, 16 h
[3] = Antiinflammatory activity in mouse RAW264.7 cells assessed as inhibition of LPS-stimulated IL6 mRNA expression at 10 uM after 3 hrs in presence of LPS by RT-PCR analysis; assay type: functional; conditions: RAW264.7, 3 h
Escherichia coli [4] = test: Antimicrobial activity against multidrug resistant Escherichia coli CCARM 1229 after 16 hrs by broth microdilution assay; assay type: functional; conditions: CCARM 1229, 16 h
[5] = Antiinflammatory activity in mouse RAW264.7 cells assessed as inhibition of LPS-stimulated MIP1 mRNA expression at 10 uM after 3 hrs in presence of LPS by RT-PCR analysis; assay type: functional; conditions: RAW264.7, 3 h
Escherichia coli [6] = test: Antimicrobial activity against Escherichia coli KCTC 1682 after 16 hrs by broth microdilution assay; assay type: functional; conditions: KCTC 1682, 16 h
Bacillus subtilis = test: Antimicrobial activity against Bacillus subtilis after 16 hrs by broth microdilution assay; assay type: functional
Pseudomonas aeruginosa [7] = test: Antimicrobial activity against multidrug resistant Pseudomonas aeruginosa CCARM 2002 after 16 hrs by broth microdilution assay; assay type: functional; conditions: CCARM 2002, 16 h
Pseudomonas aeruginosa [8] = test: Antimicrobial activity against multidrug resistant Pseudomonas aeruginosa CCARM 2095 after 16 hrs by broth microdilution assay; assay type: functional; conditions: CCARM 2095, 16 h
[9] = Binding affinity to Acinetobacter baumannii His-tagged KAS3 expressed in Escherichia coli BL21(DE3) by isothermal titration calorimetry assay
Acinetobacter baumannii [10] = test: Antimicrobial activity against multidrug resistant Acinetobacter baumannii CCARM 12005 after 16 hrs by broth microdilution assay; assay type: functional; conditions: CCARM 12005, 16 h
[11] = Antiinflammatory activity in mouse RAW264.7 cells assessed as inhibition of LPS-stimulated MIP2 mRNA expression at 10 uM after 3 hrs in presence of LPS by RT-PCR analysis; assay type: functional; conditions: RAW264.7, 3 h
Acinetobacter baumannii [12] = test: Antimicrobial activity against Acinetobacter baumannii KCTC 2508 after 16 hrs by broth microdilution assay; assay type: functional; conditions: KCTC 2508, 16 h
Staphylococcus aureus [13] = test: Antimicrobial activity against Staphylococcus aureus after 16 hrs by broth microdilution assay; assay type: functional
Pseudomonas aeruginosa [14] = test: Antimicrobial activity against multidrug resistant Pseudomonas aeruginosa CCARM 2163 after 16 hrs by broth microdilution assay; assay type: functional; conditions: CCARM 2163, 16 h
[15] = Binding affinity to Acinetobacter baumannii His-tagged KAS3 expressed in Escherichia coli BL21(DE3) by tryptophan emission assay
[16] = test system: Staphylococcus epidermidis; test: Antimicrobial activity against Staphylococcus epidermidis after 16 hrs by broth microdilution assay; assay type: functional
Pseudomonas aeruginosa [17] = test: Antimicrobial activity against Pseudomonas aeruginosa KCTC 1637 after 16 hrs by broth microdilution assay; assay type: functional; conditions: KCTC 1637, 16 h
[18] = Antiinflammatory activity in mouse RAW264.7 cells assessed as inhibition of LPS-stimulated TNFalpha mRNA expression at 10 uM after 3 hrs in presence of LPS by RT-PCR analysis; assay type: functional; conditions: RAW264.7, 3 h
[19] = Antiinflammatory activity in mouse RAW264.7 cells assessed as inhibition of LPS-stimulated IL1beta mRNA expression at 10 uM after 3 hrs in presence of LPS by RT-PCR analysis; assay type: functional; conditions: RAW264.7, 3 h
Acinetobacter baumannii [20] = test: Antimicrobial activity against multidrug resistant Acinetobacter baumannii CCARM 12035 after 16 hrs by broth microdilution assay; assay type: functional; conditions: CCARM 12035, 16 h
Acinetobacter baumannii [21] = test: Antimicrobial activity against multidrug resistant Acinetobacter baumannii CCARM 12037 after 16 hrs by broth microdilution assay; assay type: functional; conditions: CCARM 12037, 16 h
Acinetobacter baumannii [22] = test: Antimicrobial activity against multidrug resistant Acinetobacter baumannii CCARM 12036 after 16 hrs by broth microdilution assay; assay type: functional; conditions: CCARM 12036, 16 h
Staphylococcus aureus [23] = test: Antimicrobial activity against Methicillin-resistant Staphylococcus aureus 3126 after 16 hrs by broth microdilution assay; assay type: functional; conditions: Staphylococcus aureus, 3126, 16 h
RAW264.7 = test: Antiinflammatory activity in mouse RAW264.7 cells assessed as inhibition of LPS-stimulated NO production at 10 to 20 uM after 24 hrs in presence of LPS; assay type: functional, cell-based
Escherichia coli [24] = test: Antimicrobial activity against multidrug resistant Escherichia coli CCARM 1238 after 16 hrs by broth microdilution assay; assay type: functional; conditions: CCARM 1238, 16 h

Oc1ccc(/C=N/NCc2cccc(C(F)(F)F)c2)cc1
inhibition at 10 µM [1]: > 70% | MIC (Staphylococcus aureus [2]): > 32 µg/mL | inhibition at 10 µM [3]: 50.6% | MIC (Escherichia coli [4]): > 32 µg/mL | inhibition at 10 µM [5]: > 70% | MIC (Escherichia coli [6]): 32 µg/mL (≈ 109 µM) | MIC (Bacillus subtilis): 32 µg/mL (≈ 109 µM) | MIC (Pseudomonas aeruginosa [7]): > 32 µg/mL | MIC (Pseudomonas aeruginosa [8]): > 32 µg/mL | Kd [9]: 127 nM | MIC (Acinetobacter baumannii [10]): 16 µg/mL (≈ 54.4 µM) | inhibition at 10 µM [11]: > 70% | MIC (Acinetobacter baumannii [12]): 8 µg/mL (≈ 27.2 µM) | MIC (Staphylococcus aureus [13]): 32 µg/mL (≈ 109 µM) | MIC (Pseudomonas aeruginosa [14]): > 32 µg/mL | Kd [15]: 220 nM | MIC [16]: 32 µg/mL (≈ 109 µM) | MIC (Pseudomonas aeruginosa [17]): 32 µg/mL (≈ 109 µM) | inhibition at 10 µM [18]: > 70% | inhibition at 10 µM [19]: 63.5% | MIC (Acinetobacter baumannii [20]): 16 µg/mL (≈ 54.4 µM) | MIC (Acinetobacter baumannii [21]): 16 µg/mL (≈ 54.4 µM) | MIC (Acinetobacter baumannii [22]): 16 µg/mL (≈ 54.4 µM) | MIC (Staphylococcus aureus [23]): > 32 µg/mL | inhibition (RAW264.7): Active | MIC (Escherichia coli [24]): > 32 µg/mL

Cc1ccc(/C=N/NCc2ccc(O)cc2O)cc1Cl
inhibition at 10 µM [1]: > 70% | MIC (Staphylococcus aureus [2]): 32 µg/mL (≈ 110 µM) | inhibition at 10 µM [3]: 50.6% | MIC (Escherichia coli [4]): > 32 µg/mL | inhibition at 10 µM [5]: > 70% | MIC (Escherichia coli [6]): 32 µg/mL (≈ 110 µM) | MIC (Bacillus subtilis): 16 µg/mL (≈ 55 µM) | MIC (Pseudomonas aeruginosa [7]): > 32 µg/mL | MIC (Pseudomonas aeruginosa [8]): 32 µg/mL (≈ 110 µM) | Kd [9]: 197 nM | MIC (Acinetobacter baumannii [10]): 4 µg/mL (≈ 13.8 µM) | inhibition at 10 µM [11]: > 70% | MIC (Acinetobacter baumannii [12]): 2 µg/mL (≈ 6.88 µM) | MIC (Staphylococcus aureus [13]): 8 µg/mL (≈ 27.5 µM) | MIC (Pseudomonas aeruginosa [14]): 32 µg/mL (≈ 110 µM) | Kd [15]: 916 nM | MIC [16]: 8 µg/mL (≈ 27.5 µM) | MIC (Pseudomonas aeruginosa [17]): 4 µg/mL (≈ 13.8 µM) | inhibition at 10 µM [18]: > 70% | inhibition at 10 µM [19]: 10.3% | MIC (Acinetobacter baumannii [20]): 2 µg/mL (≈ 6.88 µM) | MIC (Acinetobacter baumannii [21]): 2 µg/mL (≈ 6.88 µM) | MIC (Acinetobacter baumannii [22]): 2 µg/mL (≈ 6.88 µM) | MIC (Staphylococcus aureus [23]): > 32 µg/mL | inhibition (RAW264.7): Active | MIC (Escherichia coli [24]): > 32 µg/mL
